Our source for the IC50 and melting point values is US9296711B2, “Substituted isoxazole amide compounds as inhibitors of stearoyl-CoA desaturase 1 (SCD1)” (Hoffman-La Roche Inc., priority 2012, dated 2016).

pIC50: −log10 of the molar value.

The term pIC50 denotes −log10 of the IC50, conventionally taken in molar units. Broadly, the melting point is the temperature, or range, at which the solid turns liquid.

One data set deals with T1, SCD1 (Mus musculus, UniProt P13516).
T1 construct: Mouse liver microsomes, prepared from mice fed a high-carbohydrate diet, were a source of the SCD; from tissue; host or cells: mouse liver microsomes (mice fed a high-carbohydrate diet)
T1 sequence (P13516 1-355): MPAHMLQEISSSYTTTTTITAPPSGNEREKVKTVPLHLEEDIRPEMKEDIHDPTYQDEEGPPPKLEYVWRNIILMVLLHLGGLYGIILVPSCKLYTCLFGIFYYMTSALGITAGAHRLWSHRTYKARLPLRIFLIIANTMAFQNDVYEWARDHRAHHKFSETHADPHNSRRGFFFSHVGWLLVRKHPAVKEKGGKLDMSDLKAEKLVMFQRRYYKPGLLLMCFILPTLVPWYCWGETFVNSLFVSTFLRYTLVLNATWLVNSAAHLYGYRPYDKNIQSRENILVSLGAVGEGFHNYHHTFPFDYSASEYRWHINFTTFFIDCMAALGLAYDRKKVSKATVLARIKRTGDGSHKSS
The data set is described as follows: SCD assay: release of tritiated water from desaturation of 9,10-3H-stearoyl CoA by mouse liver microsomes. Format: biochemical. The note with it: mouse liver microsomes as SCD source; 300 nM (9,10)3H-stearoyl CoA; 25 minutes at room temperature; read-out: IC50 (in vitro inhibition of SCD1). The source says:
Stearoyl CoA desaturase activity was monitored by a modification of the acyl carrier protein assay described by B. R. Talamo and K. Bloch in Anal. Biochem. 1968, 29, 300-304. The SCD assay monitors the release of tritiated water from the desaturation of 9,10-^3H-stearoyl CoA.
Mouse liver microsomes, prepared from mice fed a high-carbohydrate diet, were a source of the SCD and cyt b5 and cyt b5 reductase, necessary accessory proteins for the coupled reaction. Reaction mixtures for compound titrations contained 50 mM Tris HCl pH 7.5, 100 mM NaCl, 0.165 mg/ml BSA, 2.4% DMSO, 1 mM NADH, 0.03% T-20, and 300 nM (9,10)^3H-stearoyl CoA (Perkin-Elmer). Reactions were initiated upon the addition of 4 ug/ml SCD microsomes. Incubations were terminated after 25 minutes at room temperature with cold 6% TCA. After standing 10 minutes at 4° C., samples were centrifuged 15 minutes at 4000 rpm to pellet precipitated protein. Supernatants were added to microtiter plates containing suspensions of activated charcoal (Darco G-60, Fisher Scientific) and mixed by inversion. Plates were then centrifuged to separate ^3H—H2O product from charcoal-bound reactants. Supernatants were quantitated in a Perkin Elmer Topcount 384 after solubilization in ScintiSafe Plus 50% (Fisher Scientific).
Inhibition (%) of SCD activity by compounds was calculated according to the following formula: % Inhibition=100*[1−(CPMsample−CPMblank)/(CPMtotal−CPMblank)]
(In general: Liver microsomes are vesicles of endoplasmic reticulum, rich in cytochrome P450 enzymes.)
Regarding `NC(=O)c1cc(-c2ccc(OCc3cccc(F)c3)cc2)no1` [Example 16, 3-[4-(3-Fluoro-benzyloxy)-phenyl]-isoxazole-5-carboxylic acid amide], the pIC50 is 6.35.
Turning to `NC(=O)c1cc(-c2ccc(Cn3cnc4ccccc43)cc2)no1` [Example 49, 3-(4-Benzoimidazol-1-ylmethyl-phenyl)-isoxazole-5-carboxylic acid amide], the pIC50 is 7.14.
On the same count and under the same terms, the value for `NC(=O)c1cc(-c2ccc(OCc3ccccc3I)cc2)no1` [Example 11, 3-[4-(2-Iodo-benzyloxy)-phenyl]-isoxazole-5-carboxylic acid amide] was 6.39.
As for `NC(=O)c1cc(-c2ccc(COc3cccc(Cl)c3)cc2)no1` [Example 24, 3-[4-(3-Chloro-phenoxymethyl)-phenyl]-isoxazole-5-carboxylic acid amide], the pIC50 was 6.54.
On the same count and under the same terms, the value for `NC(=O)c1cc(-c2ccc(OCc3ccccc3SC(F)(F)F)cc2)no1` [Example 1, 3-[4-(2-Trifluoromethylsulfanyl-benzyloxy)-phenyl]-isoxazole-5-carboxylic acid amide] was 6.32.
Consider `NC(=O)c1cc(-c2ccc(OCc3ccccc3Cl)cc2)no1` [Example 19, 3-[4-(2-Chloro-benzyloxy)-phenyl]-isoxazole-5-carboxylic acid amide], for which the pIC50 was 6.55.
In the case of `NC(=O)c1cc(-c2ccc(OCc3cc(F)ccc3Cl)cc2)no1` [Example 13, 3-[4-(2-Chloro-5-fluoro-benzyloxy)-phenyl]-isoxazole-5-carboxylic acid amide], the pIC50 was 6.38.
Same read-out and setting: the value for `NC(=O)c1cc(-c2ccc(COc3ccc(Cl)cc3)cc2)no1` [Example 25, 3-[4-(4-Chloro-phenoxymethyl)-phenyl]-isoxazole-5-carboxylic acid amide] was 5.89.
As to `Cc1cc(F)ccc1OCc1ccc(-c2cc(C(N)=O)on2)cc1` [Example 42, 3-[4-(4-Fluoro-2-methyl-phenoxymethyl)-phenyl]-isoxazole-5-carboxylic acid amide], the pIC50 was 6.55.
As for `Cc1ccccc1OCc1ccc(-c2cc(C(N)=O)on2)cc1` [Example 26, 3-(4-o-Tolyloxymethyl-phenyl)-isoxazole-5-carboxylic acid amide], the pIC50 is 7.18.
As to `N#Cc1ccccc1OCc1ccc(-c2cc(C(N)=O)on2)cc1` [Example 37, 3-[4-(2-Cyano-phenoxymethyl)-phenyl]-isoxazole-5-carboxylic acid amide], the pIC50 is 6.51.
With `NC(=O)c1cc(-c2ccc(OCc3c(F)cccc3Cl)cc2)no1` [Example 12, 3-[4-(2-Chloro-6-fluoro-benzyloxy)-phenyl]-isoxazole-5-carboxylic acid amide], the pIC50 is 5.51.
The same measure, in the same setting: the value for `NC(=O)c1cc(-c2ccc(Cn3cc4ccccc4n3)cc2)no1` [Example 51, 3-(4-Indazol-2-ylmethyl-phenyl)-isoxazole-5-carboxylic acid amide] was 7.33; that for `Cc1ccc(F)cc1OCc1ccc(-c2cc(C(N)=O)on2)cc1` [Example 43, 3-[4-(5-Fluoro-2-methyl-phenoxymethyl)-phenyl]-isoxazole-5-carboxylic acid amide] was 7.26; that for `Cc1cccc2c1ccn2Cc1ccc(-c2cc(C(N)=O)on2)cc1` [Example 54, 3-[4-(4-Methyl-indol-1-ylmethyl)-phenyl]-isoxazole-5-carboxylic acid amide] was 6.66.
The same measure, in the same setting: the value for `COc1ccccc1OCc1ccc(-c2cc(C(N)=O)on2)cc1` [Example 28, 3-[4-(2-Methoxy-phenoxymethyl)-phenyl]-isoxazole-5-carboxylic acid amide] was 6.77; that for `Cc1ncccc1OCc1ccc(-c2cc(C(N)=O)on2)cc1` [Example 44, 3-[4-(2-Methyl-pyridin-3-yloxymethyl)-phenyl]-isoxazole-5-carboxylic acid amide] was 5.96; that for `Cc1ccccc1COc1ccc(-c2cc(C(N)=O)on2)cc1` [Example 9, 3-[4-(2-Methyl-benzyloxy)-phenyl]-isoxazole-5-carboxylic acid amide] was 6.34.

Test system in a further data set: not given
Assay: not given
Settings: not given
`NC(=O)c1cc(-c2ccc(OCc3cccc(F)c3)cc2)no1` [Example 16, 3-[4-(3-Fluoro-benzyloxy)-phenyl]-isoxazole-5-carboxylic acid amide] came in with a melting point of 221 to 222 °C.
